Laboratory results from patent US8377938B2, “Phenoxypyridine derivative salts and crystals thereof, and process for preparing the same” (Eisai R&D Management Co., Ltd., priority 2007, dated 2013).

How the values were obtained:
[1] = test system: HGFR autophosphorylation; assay: Inhibitory activity against the HGFR autophosphorylation using ELISA; format: cell-based; conditions: Homo sapiens, read-out: IC50, concentration necessary to inhibit HGFR autophosphorylation activity by 50%, MKN-45 cells, 1 hr treatment
Procedure: Pharmacological Test Example 3:Inhibitory Activity Against the HGFR Autophosphorylation Using ELISA
1. Preparation of Cell Extract
Human gastric cancer cells (MKN-45) were suspended in a 1% FBS-containing RPMI1640 medium (purchased from Sigma). The cell suspension (1×10^5 cells/ml) was put in a 96-well plate for cell culture (purchased from NUNC, Production No. 167008) at 0.1 ml/well, and then cultured in a 5% CO2 incubator (37° C.) overnight. After the culture, from each well was removed the supernatant solution, followed by adding 0.05 ml of a 1% FBS-containing RPMI1640 medium. […]
Each well of the plate prepared in 2. was washed three times with 200 μl of PBS, and supplied with 150 μl of 3% BSA/PBS, followed by incubating at room temperature for 2 hrs. […] Each well was supplied with 70 μl of 1 M phosphoric acid, and using the Plate Reader MTP-500 (Corona Electric), the absorbance of the well was instantly determined at a measurement wavelength of 450 nm. While defining the absorbance of a well supplied with the cell extract having no test substance as 100% HGFR autophosphorylation activity, and the absorbance, of a well supplied with 50 μl of the lysis buffer as 0% HGFR autophosphorylation activity, the HGFR autophosphorylation activity (%) was calculated for each well. […]

[2] = test system: Human gastric cancer cells (MKN-45); assay: Inhibitory activity against the proliferation of human gastric cancer cells (MKN-45); format: cell-based; conditions: 72 h, read-out: IC50, concentration necessary to inhibit the cell proliferation by 50%, MKN-45, 1% FBS RPMI1640, 3 days, Cell Counting Kit-8
Procedure: Pharmacological Test Example 2:Inhibitory Activity Against the Proliferation of Human Gastric Cancer Cells (MKN-45)
Human gastric cancer cells (MKN-45) were suspended in a 1% FBS-containing RPMI1640 medium (purchased from Sigma). The cell suspension (1×10^4 cells/ml) was added in a 96-well plate for cell culture (purchased from NUNC, Production No. 167008) at 0.1 ml/well, and then cultured in a 5% CO2 incubator (37° C.) overnight. After the culture, each well was supplied with 0.1 ml of a test substance diluted with a 1% FBS-containing RPMI1640 medium, followed by culturing in a 5% CO2 incubator (37° C.) for 3 days. After the culture, each well was supplied with 10 μl of Cell Counting Kit-8 (purchased from DOJINDO, Production No. 343-07623), followed by incubation in a 5% CO2 incubator (37° C.) for about 1.5 hrs. After the incubation, using the Plate Reader MTP-500 (Corona Electric), the absorbance of each well was determined at a measurement wavelength of 450 nm and a reference wavelength of 660 nm.

| Structure (SMILES) | IC50 [1] [nM] | IC50 [2] [nM] |
| --- | --- | --- |
| CN1CCN(C2CCN(C(=O)Nc3cc(Oc4ccc(NC(=O)C5(C(=O)Nc6ccc(F)cc6)CC5)c(F)c4)ccn3)CC2)CC1 [compound 1, N-(2-fluoro-4-{[2-({[4-(4-methylpiperazin-1-yl)piperidin-1-yl]carbonyl}amino)pyridin-4-yl]oxy}phenyl)-N′-(4-fluorophenyl)cyclopropane-1,1-dicarboxyamide] | 16 | 17 |
| O=C(Nc1cc(Oc2cc(F)c(NC(=O)C3(C(=O)Nc4ccc(F)cc4)CC3)cc2F)ccn1)N1CC(O)C1 [compound 2, N-{2,5-difluoro-4-[(2-{[(3-hydroxyazetidin-1-yl)carbonyl]amino}pyridin-4-yl)oxy]phenyl}-N′-(4-fluorophenyl)cyclopropane-1,1-dicarboxyamide] | 8.4 | 5 |
